Tests used:
[1] = Second oil phase obtained by adding NaCl to the water phase (Example 4); assay type: physicochemical; details: after separating oil phases I and II
Procedure: Cross linked polystyrene was used as adsorbent material. The volume flux for loading the adsorbent was 300 ml/min.
The adsorbent was heated to 150 °C, the temperature of the applied water steam was 160 °C.
The water steam flux was 10 g/min and was applied for 100 min.
The oil and water phases were separated.
A second oil phase was separated and was collected.

[2] = Influence of the amount of NaCl on the distribution between oil phase and water phase (Example 5); assay type: physicochemical

SMILES	Loss in the water phase [1]	Distribution in [%] between oil phase and water phase after condensation: Oil phase ([2]; NaCl 0%) [%]	Distribution in [%] between oil phase and water phase after condensation: Water phase ([2]; NaCl 0%) [%]	Distribution in [%] between oil phase and water phase after condensation: Oil phase ([2]; NaCl 27.8 %) [%]	Distribution in [%] between oil phase and water phase after condensation: Water phase ([2]; NaCl 27.8 %) [%]	Distribution in [%] between oil phase and water phase after condensation: Oil phase ([2]; NaCl 41.67%) [%]	Distribution in [%] between oil phase and water phase after condensation: Water phase ([2]; NaCl 41.67%) [%]	Distribution in [%] between oil phase and water phase after condensation: Oil phase ([2]; NaCl 55.56 %) [%]	Distribution in [%] between oil phase and water phase after condensation: Water phase ([2]; NaCl 55.56 %) [%]	Distribution in [%] between oil phase and water phase after condensation: Oil phase ([2]; NaCl 69.44 %) [%]	Distribution in [%] between oil phase and water phase after condensation: Water phase ([2]; NaCl 69.44 %) [%]	Distribution in [%] between oil phase and water phase after condensation: Oil phase ([2]; NaCl 83.33 %) [%]	Distribution in [%] between oil phase and water phase after condensation: Water phase ([2]; NaCl 83.33 %) [%]
CCCCOC(C)=O [butyl acetate]	1,4%	53.5	46.5	85.6	14.4	92.5	7.5	95	5	97.5	2.5	98.6	1.4
CCOC(=O)C(C)CC (stereo not drawn) [ethyl 2-methyl butyrate]	0,0%	66.1	33.9	95	5	97.9	2.1	98.8	1.2	99.7	0.3	100	0
CCCCCCO [hexanol]	1,8%	59.2	40.8	89.6	10.4	93.8	6.2	96.2	3.8	97.5	2.5	98.2	1.8
CCOC(C)=O [ethyl acetate]	54,8%	10.4	89.6	20.8	79.2	30.3	69.7	33.2	66.8	38.9	61.1	45.2	54.8
CC(=O)OCCc1ccccc1 [phenylethyl acetate]	0,0%	70.8	29.2	96.9	3.1	98	2	100	0	100	0	100	0
CC(=O)OCC(C)C [2-methylpropyl acetate]	1,0%	69.3	30.7	92.1	7.9	96.2	3.8	97.5	2.5	98.6	1.4	99	1
CC/C=C\CCO [cis-3-hexenol]	10,8%	30.6	69.4	62.8	37.2	73.3	26.7	80.5	19.5	85.6	14.4	89.2	10.8
CC/C=C/CCO [trans-3-hexenol]	2,7%	51.8	48.2	84	16	90.5	9.5	93.6	6.4	96.2	3.8	97.3	2.7
CCCC(CC=O)OCC (stereo not drawn) [3-ethoxy-hexanal]	1,5%	48.4	51.6	78.9	21.1	89	11	94.6	5.4	97.4	2.6	98.5	1.5
CCC/C=C/C=O [trans-2-hexenal]	12,5%	35.5	64.5	63.6	36.4	71.5	28.5	76.8	23.2	83.3	16.7	87.5	12.5
CCC/C=C/CO [trans-2-hexenol]	6,0%	37.9	62.1	73.6	26.4	82.6	17.4	88.4	11.6	91.7	8.3	94	6
CCC(C)CO (stereo not drawn) [2-methyl butanol]	17,3%	30.8	69.2	69	31	64.4	35.6	70.6	29.4	82.5	17.5	82.7	17.3
